From patent publication US20090312280A1

What was measured:
Chk2 [1] = target: T1, Chk2 (Homo sapiens, UniProt O96017); assay: cell-based or ex vivo assays of CHK2 activity
Rsk2 = Rsk2 (Homo sapiens, UniProt P51812); assay: biochemical kinase screening assay
PRK2 = PRK2 (Homo sapiens, UniProt Q16513); assay: biochemical kinase screening assay
Blk(m) = Blk(m) (Mus musculus, UniProt P16277); assay: biochemical kinase screening assay
TrkA = TrkA (Homo sapiens, UniProt P04629); assay: biochemical kinase screening assay
TrkA, sequence (P04629 33-796): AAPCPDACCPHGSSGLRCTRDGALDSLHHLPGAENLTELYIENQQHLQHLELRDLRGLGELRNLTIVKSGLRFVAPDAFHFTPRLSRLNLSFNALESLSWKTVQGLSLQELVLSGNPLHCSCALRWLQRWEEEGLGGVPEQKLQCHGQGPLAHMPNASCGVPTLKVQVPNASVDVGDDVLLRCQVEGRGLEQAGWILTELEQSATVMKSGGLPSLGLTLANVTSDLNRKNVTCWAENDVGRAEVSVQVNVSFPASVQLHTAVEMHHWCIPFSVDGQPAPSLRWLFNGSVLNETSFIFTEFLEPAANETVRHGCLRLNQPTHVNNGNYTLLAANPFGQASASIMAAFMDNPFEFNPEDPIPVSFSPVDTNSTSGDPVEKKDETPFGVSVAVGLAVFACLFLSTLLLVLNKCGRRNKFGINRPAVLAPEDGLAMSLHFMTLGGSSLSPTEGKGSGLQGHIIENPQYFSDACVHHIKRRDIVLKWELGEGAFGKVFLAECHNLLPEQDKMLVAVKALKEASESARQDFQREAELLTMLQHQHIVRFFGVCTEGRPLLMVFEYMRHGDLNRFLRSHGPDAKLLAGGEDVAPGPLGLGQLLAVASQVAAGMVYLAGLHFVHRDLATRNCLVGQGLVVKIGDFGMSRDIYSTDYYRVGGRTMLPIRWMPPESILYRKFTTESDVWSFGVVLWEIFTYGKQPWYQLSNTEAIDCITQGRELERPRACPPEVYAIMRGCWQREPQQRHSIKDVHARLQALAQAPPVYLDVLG

EphB4 = EphB4 (Homo sapiens, UniProt P54760); assay: biochemical kinase screening assay
PDGFRa = PDGFRa (Homo sapiens, UniProt P16234); assay: biochemical kinase screening assay
PDGFRa, sequence (P16234 24-1089): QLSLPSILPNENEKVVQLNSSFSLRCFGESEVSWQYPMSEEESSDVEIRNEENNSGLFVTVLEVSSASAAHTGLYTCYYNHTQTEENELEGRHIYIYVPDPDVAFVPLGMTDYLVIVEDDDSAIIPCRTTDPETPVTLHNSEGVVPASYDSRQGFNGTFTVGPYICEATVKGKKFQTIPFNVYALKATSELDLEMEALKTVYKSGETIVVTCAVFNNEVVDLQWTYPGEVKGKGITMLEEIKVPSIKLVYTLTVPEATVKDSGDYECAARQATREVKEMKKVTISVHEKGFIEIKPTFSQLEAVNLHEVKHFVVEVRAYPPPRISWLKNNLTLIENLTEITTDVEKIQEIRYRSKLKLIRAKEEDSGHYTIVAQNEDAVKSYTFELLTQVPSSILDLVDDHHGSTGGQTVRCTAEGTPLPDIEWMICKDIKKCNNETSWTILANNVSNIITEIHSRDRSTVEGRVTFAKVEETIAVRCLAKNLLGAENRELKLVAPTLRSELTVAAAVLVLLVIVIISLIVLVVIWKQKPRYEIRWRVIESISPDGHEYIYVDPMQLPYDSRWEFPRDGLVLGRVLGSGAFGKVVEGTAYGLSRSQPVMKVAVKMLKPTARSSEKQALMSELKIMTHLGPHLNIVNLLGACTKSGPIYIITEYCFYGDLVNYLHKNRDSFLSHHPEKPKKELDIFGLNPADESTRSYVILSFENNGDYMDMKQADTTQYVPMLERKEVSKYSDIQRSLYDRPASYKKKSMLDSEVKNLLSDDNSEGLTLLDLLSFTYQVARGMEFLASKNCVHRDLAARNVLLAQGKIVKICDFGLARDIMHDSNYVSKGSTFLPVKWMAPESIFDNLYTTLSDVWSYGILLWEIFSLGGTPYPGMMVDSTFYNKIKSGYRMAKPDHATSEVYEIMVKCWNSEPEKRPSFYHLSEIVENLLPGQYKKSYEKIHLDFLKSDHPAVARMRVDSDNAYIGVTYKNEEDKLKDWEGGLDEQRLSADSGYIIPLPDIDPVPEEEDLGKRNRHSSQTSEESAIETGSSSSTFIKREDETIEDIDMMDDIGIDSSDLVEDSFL

Abl(m) = Abl(m) (Mus musculus, UniProt P00520); assay: biochemical kinase screening assay
Bmx = Bmx (Homo sapiens, UniProt P51813); assay: biochemical kinase screening assay
Axl = Axl (Homo sapiens, UniProt P30530); assay: biochemical kinase screening assay
Axl, sequence (P30530 26-894): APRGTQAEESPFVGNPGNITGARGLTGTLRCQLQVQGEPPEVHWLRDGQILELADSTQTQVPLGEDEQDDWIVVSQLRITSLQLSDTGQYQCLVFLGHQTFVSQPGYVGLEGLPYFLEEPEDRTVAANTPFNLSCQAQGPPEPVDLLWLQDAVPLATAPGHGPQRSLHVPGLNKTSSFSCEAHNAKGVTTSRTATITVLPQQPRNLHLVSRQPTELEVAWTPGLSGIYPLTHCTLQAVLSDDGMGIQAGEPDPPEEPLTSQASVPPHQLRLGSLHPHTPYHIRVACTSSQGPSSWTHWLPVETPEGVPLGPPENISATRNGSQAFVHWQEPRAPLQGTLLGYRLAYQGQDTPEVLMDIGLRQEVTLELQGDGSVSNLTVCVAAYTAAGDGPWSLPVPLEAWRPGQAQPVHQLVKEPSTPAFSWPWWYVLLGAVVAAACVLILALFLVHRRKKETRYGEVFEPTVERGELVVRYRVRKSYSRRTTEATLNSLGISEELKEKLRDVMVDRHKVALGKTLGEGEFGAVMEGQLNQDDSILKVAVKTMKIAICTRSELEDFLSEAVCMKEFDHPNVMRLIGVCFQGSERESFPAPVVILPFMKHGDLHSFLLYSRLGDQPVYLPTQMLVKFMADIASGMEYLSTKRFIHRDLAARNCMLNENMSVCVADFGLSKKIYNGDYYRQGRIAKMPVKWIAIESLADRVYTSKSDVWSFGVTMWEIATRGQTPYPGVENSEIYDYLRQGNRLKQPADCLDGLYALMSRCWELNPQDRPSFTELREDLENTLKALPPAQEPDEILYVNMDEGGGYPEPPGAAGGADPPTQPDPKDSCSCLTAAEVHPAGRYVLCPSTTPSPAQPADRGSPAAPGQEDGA

Lck = Lck (Homo sapiens, UniProt P06239); assay: biochemical
HT29 (Colon) = assay: cell survival / MTT combination cytotoxicity; assay type: cell-based, human; settings: Homo sapiens, HT-29
HUVEC cells = assay: cell survival assay in normal cells; assay type: cell-based
Description: (§1) The cytotoxic effect induced by the combination treatment in HUVEC cells is negligible compared with the cytotoxicity induced by the same treatment in tumor cells. […] A cell survival assay was also performed in HTC116 cells (human colon carcinoma) that were transiently transfected with a plasmid containing either p53 wild type or mutant.

EGFR2 = EGFR2 (Homo sapiens, UniProt P35968); assay: biochemical kinase screening assay; settings: read-out: IC50 (nM), given as Ki
EGFR2, sequence (P35968 20-1356): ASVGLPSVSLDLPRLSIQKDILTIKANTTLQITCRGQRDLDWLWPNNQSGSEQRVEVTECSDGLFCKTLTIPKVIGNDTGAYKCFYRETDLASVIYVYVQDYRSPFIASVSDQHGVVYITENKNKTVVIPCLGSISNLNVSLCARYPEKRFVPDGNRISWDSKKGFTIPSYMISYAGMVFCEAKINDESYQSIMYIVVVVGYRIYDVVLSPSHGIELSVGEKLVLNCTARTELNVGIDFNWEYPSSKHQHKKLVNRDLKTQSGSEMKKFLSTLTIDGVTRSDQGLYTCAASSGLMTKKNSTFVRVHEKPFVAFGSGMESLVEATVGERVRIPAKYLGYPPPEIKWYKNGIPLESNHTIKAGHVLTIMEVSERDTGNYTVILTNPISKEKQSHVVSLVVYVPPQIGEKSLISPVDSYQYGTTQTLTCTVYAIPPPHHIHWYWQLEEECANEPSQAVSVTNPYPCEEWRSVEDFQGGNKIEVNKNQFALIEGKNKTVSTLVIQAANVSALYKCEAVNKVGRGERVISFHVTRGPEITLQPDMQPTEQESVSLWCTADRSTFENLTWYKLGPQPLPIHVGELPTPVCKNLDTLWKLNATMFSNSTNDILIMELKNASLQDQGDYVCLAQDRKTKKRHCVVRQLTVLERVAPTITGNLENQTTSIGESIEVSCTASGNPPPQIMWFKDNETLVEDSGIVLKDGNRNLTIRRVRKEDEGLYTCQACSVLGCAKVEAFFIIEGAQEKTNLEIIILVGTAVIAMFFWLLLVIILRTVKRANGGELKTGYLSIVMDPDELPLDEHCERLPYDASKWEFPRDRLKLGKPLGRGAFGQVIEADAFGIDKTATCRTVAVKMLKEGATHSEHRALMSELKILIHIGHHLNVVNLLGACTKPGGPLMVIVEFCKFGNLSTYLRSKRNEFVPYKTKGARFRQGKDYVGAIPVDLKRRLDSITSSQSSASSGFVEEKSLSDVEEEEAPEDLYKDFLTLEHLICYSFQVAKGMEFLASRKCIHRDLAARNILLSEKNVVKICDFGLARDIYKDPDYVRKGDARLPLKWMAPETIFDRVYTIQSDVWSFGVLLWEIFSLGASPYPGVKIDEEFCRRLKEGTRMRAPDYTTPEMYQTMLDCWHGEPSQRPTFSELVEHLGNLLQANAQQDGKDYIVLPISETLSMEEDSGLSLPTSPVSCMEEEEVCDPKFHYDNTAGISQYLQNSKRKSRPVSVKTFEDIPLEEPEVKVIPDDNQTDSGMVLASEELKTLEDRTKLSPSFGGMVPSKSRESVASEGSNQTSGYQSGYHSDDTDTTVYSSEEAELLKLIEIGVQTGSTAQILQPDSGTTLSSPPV

Yes = Yes (Homo sapiens, UniProt P07947); assay: biochemical kinase screening assay
Fgr = Fgr (Homo sapiens, UniProt P09769); assay: biochemical kinase screening assay
FGFR3 = FGFR3 (Homo sapiens, UniProt P22607); assay: biochemical kinase screening assay
PDK1 = PDK1 (Homo sapiens, UniProt O15530); assay: biochemical kinase screening assay
Lyn = Lyn (Homo sapiens, UniProt P07948); assay: biochemical kinase screening assay
[2] = tested on: gemcitabine induced S-Phase arrest; assay: flow cytometry cell cycle / apoptosis analysis; assay type: cell-based
[3] = tested on: wild type p53 HCT116 cells; assay: cell survival assay, transiently transfected p53 wild type; assay type: cell-based, human; settings: Compound 1 + gemcitabine compared with gemcitabine alone
Description: as §1

Rsk3 = Rsk3 (Homo sapiens, UniProt Q15349); assay: biochemical
PAR-1Ba = PAR-1Ba (Homo sapiens, UniProt Q7KZI7); assay: biochemical kinase screening assay
K562 (Leukemia) = assay: cell survival / MTT combination cytotoxicity; assay type: cell-based, human; settings: Homo sapiens
[4] = tested on: p53-defective human cancer cell lines; assay: cell survival / MTT assays, cell line not named; assay type: cell-based
Rsk1 = Rsk1 (Homo sapiens, UniProt Q15418); assay: biochemical kinase screening assay
Chk2 [5] = target: T1, Chk2; assay: biochemical kinase screening assay; settings: read-out: IC50 (nM), given as Ki
Colo205 (Colon) = assay: cell survival / MTT combination cytotoxicity; assay type: cell-based, human; settings: Homo sapiens, COLO 205
Flt3 = Flt3 (Homo sapiens, UniProt P36888); assay: biochemical kinase screening assay
mutant p53 HCT116 cells = assay: cell survival assay, transiently transfected p53 mutant; assay type: cell-based, human; settings: Compound 1 + gemcitabine compared with gemcitabine alone
Description: as §1

PC-3 (Prostate) = assay: cell survival / MTT combination cytotoxicity; assay type: cell-based, human; settings: Homo sapiens

T1 sequence (O96017 whole entry): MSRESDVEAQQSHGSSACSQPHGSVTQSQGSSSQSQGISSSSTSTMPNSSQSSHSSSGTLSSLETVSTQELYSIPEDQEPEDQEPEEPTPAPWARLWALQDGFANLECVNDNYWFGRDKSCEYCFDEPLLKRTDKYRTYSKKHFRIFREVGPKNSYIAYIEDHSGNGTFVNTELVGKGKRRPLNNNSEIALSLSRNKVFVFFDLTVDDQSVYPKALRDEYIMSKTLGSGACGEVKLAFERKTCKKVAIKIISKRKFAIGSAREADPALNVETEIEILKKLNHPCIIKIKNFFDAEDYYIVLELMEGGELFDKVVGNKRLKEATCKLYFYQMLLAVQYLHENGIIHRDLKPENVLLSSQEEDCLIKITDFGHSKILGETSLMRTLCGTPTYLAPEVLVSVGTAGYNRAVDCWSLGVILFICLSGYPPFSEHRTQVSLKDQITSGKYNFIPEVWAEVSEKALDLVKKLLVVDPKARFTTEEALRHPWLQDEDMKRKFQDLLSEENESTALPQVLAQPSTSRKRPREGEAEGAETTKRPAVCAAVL
Blk(m), sequence (P16277 whole entry): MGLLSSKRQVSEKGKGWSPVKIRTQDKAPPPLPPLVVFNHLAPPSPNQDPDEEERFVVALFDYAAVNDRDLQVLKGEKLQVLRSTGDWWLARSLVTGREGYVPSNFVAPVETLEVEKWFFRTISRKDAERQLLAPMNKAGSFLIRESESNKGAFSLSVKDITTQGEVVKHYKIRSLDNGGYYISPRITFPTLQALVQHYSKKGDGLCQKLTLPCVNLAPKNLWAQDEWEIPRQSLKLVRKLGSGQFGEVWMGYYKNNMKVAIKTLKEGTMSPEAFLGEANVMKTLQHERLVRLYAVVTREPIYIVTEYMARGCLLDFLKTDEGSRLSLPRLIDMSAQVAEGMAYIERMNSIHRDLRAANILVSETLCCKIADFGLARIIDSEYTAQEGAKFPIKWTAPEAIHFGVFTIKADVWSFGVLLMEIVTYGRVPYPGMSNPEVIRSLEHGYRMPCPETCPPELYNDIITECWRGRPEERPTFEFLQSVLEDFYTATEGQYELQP

In the case of `Cn1cc(-c2[nH]c3cc(NC(=O)[C@H](N)C4CCCCC4)cc4c3c2C=NNC4=O)cn1` [Compound 1], the “modulation of CHK2 activity” value (Chk2 [1]) is reported as “no evidence that CHK2 activity is modulated”, the IC50 (Rsk2) is reported as 621 nM and the IC50 (PRK2) is reported as 1980 nM. The IC50 (Blk(m)) was 365 nM, the IC50 (TrkA) was 1270 nM and the IC50 (EphB4) was > 10000 nM. It also gave an IC50 (PDGFRa) of 2810 nM, an IC50 (Abl(m)) of 929 nM and an IC50 (Bmx) of 233 nM. For the same compound, the IC50 (Axl) was 117 nM, the IC50 (Lck) was 396 nM and the IC50 (HT29 (Colon)) was 1800 nM. For the same compound, the “increase in cell kill” value (HUVEC cells; Compound 1 540 nM (12×EC50) + camptothecin compared with camptothecin alone) was 21.7, the “increase in cell kill” value (HUVEC cells; Compound 1 540 nM (12×EC50) + gemcitabine compared with gemcitabine alone) was 31.2% and the Ki (EGFR2) was 8 nM. For the same compound, the IC50 (Yes) was 14 nM, the IC50 (Fgr) was 153 nM and the IC50 (FGFR3) was 23 nM. The IC50 (PDK1) was 439 nM, the IC50 (Lyn) was 266 nM and the “S-Phase arrest by flow cytometry” value ([2]; combination with gemcitabine) was “abrogation of gemcitabine induced S-Phase arrest”. For the same compound, the “apoptotic cells by flow cytometry” value ([2]; gemcitabine + Compound 1 compared with gemcitabine alone) was “significant increase in apoptotic cells”, the “effect on cell cycle” value ([2]; in the absence of DNA damage) was “no effect on cell cycle” and the cell growth inhibition [3] was 15%. It also gave an IC50 (Rsk3) of 171 nM, an IC50 (PAR-1Ba) of 350 nM and an IC50 (K562 (Leukemia)) of 420 nM. The “effect on cell viability” value ([4]; Compound 1 alone compared with control (untreated) cells) was “no significant effect on cell viability”, the “potentiation of gemcitabine cytotoxicity” value ([4]; combination with gemcitabine compared with gemcitabine alone) was 89% and the IC50 (Rsk1) was 98 nM. For the same compound, the Ki (Chk2 [5]) was 47 nM, the IC50 (Colo205 (Colon)) was 1300 nM and the IC50 (Flt3) was 25 nM. The cell growth inhibition (mutant p53 HCT116 cells) was 44% and the IC50 (PC-3 (Prostate)) was 1600 nM.
